Earlier results in US9040672B2, “Devices and methods for reducing matrix effects” (Agilent Technologies, Inc., priority 2007, dated 2015).

Conditions: octanol-water partition coefficient

Row | SMILES | Log P
1 | NC(=O)N1c2ccccc2C=Cc2ccccc21 [carbamazepine] | 2.69
2 | CC[C@@H]([C@H](C)O)n1ncn(-c2ccc(N3CCN(c4ccc(OC[C@@H]5CO[C@@](Cn6cncn6)(c6ccc(F)cc6F)C5)cc4)CC3)cc2)c1=O [posaconazole] | 5.66
